Consider 42 compounds from patent publication US12150995B2, “IRAK degraders and uses thereof” (Kymera Therapeutics, Inc., priority 2020, dated 2024).

One may read the DC50 as the midpoint of the concentration-degradation curve. Low readings indicate a more potent degrader, high ones a less potent degrader.

In this experiment the target is T1, IRAK4 (Homo sapiens, UniProt Q9NWZ3).
T1 construct: endogenous in cells; host or cells: OCI-LY10
T1 sequence (Q9NWZ3 1-460): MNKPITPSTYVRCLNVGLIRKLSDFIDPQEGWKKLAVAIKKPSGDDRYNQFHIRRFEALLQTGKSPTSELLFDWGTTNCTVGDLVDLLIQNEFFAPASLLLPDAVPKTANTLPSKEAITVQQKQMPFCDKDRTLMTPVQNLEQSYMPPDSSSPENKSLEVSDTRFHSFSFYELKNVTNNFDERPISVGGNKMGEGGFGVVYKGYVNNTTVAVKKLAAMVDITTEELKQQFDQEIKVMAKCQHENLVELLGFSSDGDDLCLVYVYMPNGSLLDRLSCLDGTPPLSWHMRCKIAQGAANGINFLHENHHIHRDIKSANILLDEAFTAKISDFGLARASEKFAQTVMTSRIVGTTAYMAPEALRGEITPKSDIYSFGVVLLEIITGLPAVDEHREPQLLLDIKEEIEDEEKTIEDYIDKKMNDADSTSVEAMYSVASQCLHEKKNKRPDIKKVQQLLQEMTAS
Put plainly: IRAK4 MSD Degradation in OCI-LY10. The format is cell-based. The following applies: OCI-LY10 cells, Meso Scale Discovery, incubated 4 to 24 hours. The gist of the method:
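OCI-LY10 cells (300,000/well) exposed to an 8-point 1:3 series from a top concentration of 1 to 10 μM for 4 to 24 h at 37 °C. IRAK4 remaining in RIPA lysates quantified by MSD sandwich immunoassay; DC50 from a three-parameter logistic fit.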

SMILES strings stand for the structures.

Regarding `CC(C)(O)c1cc2nc([C@H]3CC[C@H](CN4CC5(CC(CCNc6cccc7c6C(=O)N(C6CCC(=O)NC6=O)C7=O)C5)C4)CC3)sc2cc1NC(=O)c1cncc(F)c1` (stereo partly drawn) [I-478], the half-maximal degradation concentration (DC50) was in the range of 10 to 50 nM.

For `CN(C)c1cc2nn([C@H]3CC[C@H](CN4CCN(c5cccc6c5n(C)c(=O)n6C5CCC(=O)NC5=O)CC4)CC3)cc2cc1NC(=O)c1cccc(C(F)(F)F)n1` (stereo partly drawn) [I-388], the 50% degradation concentration (DC50) was in the range of 10 to 50 nM.

`CN(CCNc1cccc2c1C(=O)N(C1CCC(=O)NC1=O)C2=O)C[C@H]1CC[C@H](c2nc3cc(C(C)(C)O)c(NC(=O)c4cccc(C(F)(F)F)n4)cc3s2)CC1` (stereo partly drawn) [I-492] gave a DC50 of 10 to 50 nM.

`COc1ccc2c(c1C1CCN(C[C@H]3CC[C@H](n4cc5cc(NC(=O)c6cccc(C(F)(F)F)n6)ncc5n4)CC3)CC1)n(C)c(=O)n2C1CCC(=O)N(C)C1=O` (stereo partly drawn) [I-245] displayed a 50% degradation concentration (DC50) of over 200 nM.

As to `COc1cc2nn([C@H]3C[C@H](CN4CCC(c5c(F)ccc6c5n(C)c(=O)n6C5CCC(=O)NC5=O)CC4)C3)cc2cc1NC(=O)c1cccc(C(F)(F)F)n1` (stereo partly drawn) [I-141], the DC50 lay within 10 to 50 nM.

Consider `Cn1c(=O)n(C2CCC(=O)NC2=O)c2ccc(Cl)c(C3CCN(C[C@H]4C[C@H](n5cc6cc(NC(=O)c7cccc(C(F)(F)F)n7)c(Cl)cc6n5)C4)CC3)c21` (stereo partly drawn) [I-144], for which the DC50 is 50 to 100 nM.

With `COc1cc2nn([C@H]3CC[C@H](CN(C)C4CCN(c5cccc6c5n(C)c(=O)n6C5CCC(=O)NC5=O)CC4)CC3)cc2cc1-n1cc(-c2cccc(C(F)(F)F)n2)nn1` (stereo partly drawn) [I-100], the half-maximal degradation concentration (DC50) is over 200 nM.

In turn, `O=C1CCN(c2cncc3c(C4CCN(C[C@H]5CC[C@H](n6cc7cc(NC(=O)c8cccc(C(F)(F)F)n8)ccc7n6)CC5)CC4)cccc23)C(=O)N1` [I-68] showed a DC50 of 10 to 50 nM.

`Cn1c(=O)n(C2CCC(=O)NC2=O)c2cccc(N3CCN(C[C@H]4CC[C@H](n5cc6cc(NC(=O)c7cccc(C(F)(F)F)n7)c(C7CC7)cc6n5)CC4)CC3)c21` (stereo partly drawn) [I-296] yielded a DC50 of 10 to 50 nM.

In turn, `COC(=O)c1cc2nn([C@H]3CC[C@H](CN4CCN(c5cccc6c5n(C)c(=O)n6C5CCC(=O)NC5=O)CC4)CC3)cc2cc1NC(=O)c1cccc(C(F)(F)F)n1` (stereo partly drawn) [I-405] had a DC50 of 10 to 50 nM.

In turn, `COc1cncc(C(=O)Nc2cc3sc([C@H]4CC[C@H](CN(C)CCCNc5cccc6c5C(=O)N(C5CCC(=O)NC5=O)C6=O)CC4)nc3cc2OC)c1` (stereo partly drawn) [I-450] had a DC50 of over 200 nM.

`CC(C)(O)c1cc2nc([C@H]3CC[C@H](CN4CC5(CC(CCNc6cccc7c6C(=O)N(C6CCC(=O)NC6=O)C7=O)C5)C4)CC3)sc2cc1NC(=O)c1cncc(C#N)c1` (stereo partly drawn) [I-461] gave a DC50 of 10 to 50 nM.

In the case of `COc1cc2nc([C@H]3CC[C@H](CN(C)CCCCNc4cccc5c4C(=O)N(C4CCC(=O)NC4=O)C5=O)CC3)sc2cc1NC(=O)c1cncc(F)c1` (stereo partly drawn) [I-479], the DC50 was over 200 nM.

On to `CC(C)(O)c1cc2nn(-c3ccc(CN4CCC5(CCC(Nc6cccc7c6C(=O)N(C6CCC(=O)NC6=O)C7=O)CC5)CC4)cc3)cc2cc1NC(=O)c1cccc(C(F)(F)F)n1` (stereo not drawn) [I-462], for which the half-maximal degradation concentration (DC50) was 100 to 200 nM.

Take `CC(C)Nc1cc(-n2ccc3cc(C(F)(F)F)cnc32)ncc1C(=O)N[C@H]1CC[C@H](CN2CCC(c3cccc4c3n(C)c(=O)n4C3CCC(=O)NC3=O)CC2)CC1` (stereo partly drawn) [I-368]: the 50% degradation concentration (DC50) is over 200 nM.

Compound `Cc1cccc(C(=O)Nc2cc3sc([C@H]4CC[C@H](CN5CCN(CCNc6cccc7c6C(=O)N(C6CCC(=O)NC6=O)C7=O)[C@H](C)C5)CC4)nc3cc2C(C)(C)O)n1` (stereo partly drawn) [I-470] had a 50% degradation concentration (DC50) of 10 to 50 nM.

Consider `COc1cncc(C(=O)Nc2cc3sc([C@H]4CC[C@H](CN(C)CCCCNc5cccc6c5C(=O)N(C5CCC(=O)NC5=O)C6=O)CC4)nc3cc2OC)c1` (stereo partly drawn) [I-449], for which the half-maximal degradation concentration (DC50) was over 200 nM.

Consider `Cn1c(=O)n(C2CCC(=O)NC2=O)c2cccc(N3CC4CCC(C3)N4C[C@H]3CC[C@H](n4cc5cc(NC(=O)c6cccc(C(F)(F)F)n6)ccc5n4)CC3)c21` (stereo partly drawn) [I-164], for which the half-maximal degradation concentration (DC50) was under 10 nM.

Turning to `COc1cc2nn([C@H]3CC[C@H](CN4CCC(c5cc(Cl)cc6c5n(C)c(=O)n6C5CCC(=O)NC5=O)CC4)CC3)cc2cc1NC(=O)c1cccc(C(F)(F)F)n1` (stereo partly drawn) [I-36], the half-maximal degradation concentration (DC50) was under 10 nM.

The compound `CC(C)Nc1cc(-n2ccc3cc(C#N)cnc32)ncc1C(=O)N[C@H]1CC[C@H](CN(C)C2CCN(c3cccc4c3n(C)c(=O)n4C3CCC(=O)NC3=O)CC2)CC1` (stereo partly drawn) [I-118] displayed a DC50 of under 10 nM.

For `CC(C)(N)c1cc2nn([C@H]3CC[C@H](CN4C5CCC4CN(c4cccc6c(N7CCC(=O)NC7=O)cncc46)C5)CC3)cc2cc1NC(=O)c1cccc(C(F)(F)F)n1` [I-227], the DC50 is under 10 nM.

Compound `COc1cc2nn([C@H]3CC[C@H](CN4CCC(c5cc(C)cc6c5n(C)c(=O)n6C5CCC(=O)NC5=O)CC4)CC3)cc2cc1NC(=O)c1cccc(C(F)(F)F)n1` (stereo partly drawn) [I-35] displayed a 50% degradation concentration (DC50) of under 10 nM.

In turn, `COc1cc2nn([C@H]3CC[C@H](CN4CCC5(CC4)CCN(c4cccc6c4n(C)c(=O)n6C4CCC(=O)NC4=O)CC5)CC3)cc2cc1NC(=O)c1cncc(C#N)c1` (stereo partly drawn) [I-207] returned a DC50 of under 10 nM.

As to `O=C1CCN(c2cncc3cc(C4CCN(C[C@H]5CC[C@H](n6cc7cc(NC(=O)c8cccc(C(F)(F)F)n8)ccc7n6)CC5)CC4)ccc23)C(=O)N1` [I-321], the DC50 was over 200 nM.

In turn, `CC(C)(O)c1cc2nc([C@H]3CC[C@H](CN4CCO[C@H](CCCNc5cccc6c5C(=O)N(C5CCC(=O)NC5=O)C6=O)C4)CC3)sc2cc1NC(=O)c1cncc(C#N)c1` (stereo partly drawn) [I-455] registered a DC50 of over 200 nM.

In turn, `COc1cc2nn([C@H]3CC[C@H](CN4CCCN(c5ccc6c(N7CCC(=O)NC7=O)cncc6c5)CC4)CC3)cc2cc1NC(=O)c1cccc(C(F)(F)F)n1` [I-356] gave a 50% degradation concentration (DC50) of under 10 nM.

`COc1cc2nn([C@H]3CC[C@H](CN4CCC5(CC4)CC(CCNc4cccc6c4C(=O)N(C4CCC(=O)NC4=O)C6=O)C5)CC3)cc2cc1NC(=O)c1cccc(C(F)(F)F)n1` (stereo partly drawn) [I-9] gave a 50% degradation concentration (DC50) of 50 to 100 nM.

Regarding `Cc1cccc(C(=O)Nc2cc3sc([C@H]4CC[C@H](C(=O)N5CCC6(CC5)CC(CCNc5cccc7c5C(=O)N(C5CCC(=O)NC5=O)C7=O)C6)CC4)nc3cc2C(C)(C)O)n1` (stereo partly drawn) [I-474], the DC50 was over 200 nM.

In turn, `CC(C)(O)c1cc2nn([C@H]3CC[C@H](CN4C5CC4CN(c4cccc6c(N7CCC(=O)NC7=O)cncc46)C5)CC3)cc2cc1NC(=O)c1cccc(C(F)(F)F)n1` [I-228] yielded a 50% degradation concentration (DC50) of under 10 nM.

`Cc1cccc(C(=O)Nc2cc3sc([C@H]4CC[C@H](CN(C)CCCCNc5cccc6c5C(=O)N(C5CCC(=O)NC5=O)C6=O)CC4)nc3cc2C(C)(C)O)n1` (stereo partly drawn) [I-444] gave a half-maximal degradation concentration (DC50) of 10 to 50 nM.

`COc1cc2nn([C@H]3CC[C@H](CN4CCC5(CC4)CC(Nc4cccc6c4C(=O)N(C4CCC(=O)NC4=O)C6=O)C5)CC3)cc2cc1NC(=O)c1cnn2cccnc12` (stereo partly drawn) [I-13] had a half-maximal degradation concentration (DC50) of under 10 nM.

Turning to `COc1cc2nn([C@H]3CC[C@H](CN(C)C4CCN(c5cccc6c5n(C)c(=O)n6C5CCC(=O)NC5=O)CC4)CC3)cc2cc1NC(=O)c1cncc(Cl)c1` (stereo partly drawn) [I-80], the half-maximal degradation concentration (DC50) was under 10 nM.

For the compound `Cc1cc2nn([C@H]3CC[C@H](CN4CCN(c5cccc6c5n(C)c(=O)n6[C@@H]5CCC(=O)NC5=O)CC4)CC3)cc2cc1NC(=O)c1cccc(C(F)(F)F)n1` [I-400, N-[2-[4-[[4-[1-[(3R)-2,6-dioxo-3-piperidyl]-3-methyl-2-oxo-benzimidazol-4-yl]piperazin-1-yl]methyl]cyclohexyl]-6-methyl-indazol-5-yl]-6-(trifluoromethyl)pyridine-2-carboxamide], the 50% degradation concentration (DC50) was under 10 nM.

The compound `COc1cc2nn([C@H]3CC[C@H](CN4CCN(c5cccc6c(N7CCC(=O)NC7=O)cncc56)[C@@H](C)C4)CC3)cc2cc1NC(=O)c1cccc(C(F)(F)F)n1` [I-233] came in with a DC50 of under 10 nM.

`COc1cc2nn([C@H]3CC[C@H](CN4CCC(c5cccc6c5n(C)c(=O)n6C5CCC(=O)NC5=O)CC4)CC3)cc2cc1NC(=O)c1ccc(C(F)(F)F)nc1` (stereo partly drawn) [I-194] returned a DC50 of over 200 nM.

`O=C1CCC(N2C(=O)c3cccc(NCCC4CC5(C4)CN(C[C@H]4CC[C@H](c6nc7cc(C(=O)O)c(NC(=O)c8cccc(C(F)(F)F)n8)cc7s6)CC4)C5)c3C2=O)C(=O)N1` (stereo partly drawn) [I-485] came in with a DC50 of 10 to 50 nM.

Regarding `C[C@@H]1CN(c2cccc3c2n(C)c(=O)n3C2CCC(=O)NC2=O)CCN1C[C@H]1CC[C@H](n2cc3cc(NC(=O)c4cccc(C(F)(F)F)n4)c(C(C)(C)O)cc3n2)CC1` (stereo partly drawn) [I-226], the DC50 is under 10 nM.

Compound `CC(C)Nc1cc(-c2ccc3cc(C#N)cnn23)ncc1C(=O)N[C@H]1CC[C@H](CN2CCN(c3cccc4c3n(C)c(=O)n4C3CCC(=O)NC3=O)CC2)CC1` (stereo partly drawn) [I-362] gave a DC50 of under 10 nM.

`CC(C)Nc1cc(-c2ccc3cc(C#N)cnn23)ncc1C(=O)N[C@H]1CC[C@H](CN2CCC(c3cccc4c3n(C)c(=O)n4C3CCC(=O)NC3=O)CC2)CC1` (stereo partly drawn) [I-183] registered a DC50 of under 10 nM.

Compound `CC(C)(O)c1cc2nc([C@H]3CC[C@H](C(=O)N4CCN(CCCNc5cccc6c5C(=O)N(C5CCC(=O)NC5=O)C6=O)CC4)CC3)sc2cc1NC(=O)c1cccc(C(F)(F)F)n1` (stereo partly drawn) [I-493] came in with a DC50 of under 10 nM.

For the compound `C[C@@H]1CN(C[C@H]2CC[C@H](n3cc4cc(NC(=O)c5cccc(C(F)(F)F)n5)c(C(C)(C)O)cc4n3)CC2)CCN1c1cccc2c(N3CCC(=O)NC3=O)cncc12` [I-257], the 50% degradation concentration (DC50) was under 10 nM.

`COc1cc2nc([C@H]3CC[C@H](CN(C)CCCCNc4cccc5c4C(=O)N(C4CCC(=O)NC4=O)C5=O)CC3)sc2cc1NC(=O)c1cncc(C)c1` (stereo partly drawn) [I-460] had a 50% degradation concentration (DC50) of over 200 nM.
